The source of these data is patent US20250011311A1, “AMIDO HETEROAROMATIC COMPOUNDS” (AstraZeneca AB, priority 2022, published 2025).

The target of test [1] is over expressed HSD17β13 in HEK293S cells (Homo sapiens (Human), UniProt Q7Z5P4). The test is described as follows: In Vitro 17bHSD13 Cell Assay. It counts as cell-based. The conditions noted are these: HEK293S cells over expressing HSD17β13; estradiol to estrone conversion, 18 h, LC-MS/MS; read-out: 17bHSD1713 Cell assay IC50. As to the method: In Vitro 17bHSD13 Cell Assay
Chain of over expressed HSD17β13 in HEK293S cells (Q7Z5P4 20-300): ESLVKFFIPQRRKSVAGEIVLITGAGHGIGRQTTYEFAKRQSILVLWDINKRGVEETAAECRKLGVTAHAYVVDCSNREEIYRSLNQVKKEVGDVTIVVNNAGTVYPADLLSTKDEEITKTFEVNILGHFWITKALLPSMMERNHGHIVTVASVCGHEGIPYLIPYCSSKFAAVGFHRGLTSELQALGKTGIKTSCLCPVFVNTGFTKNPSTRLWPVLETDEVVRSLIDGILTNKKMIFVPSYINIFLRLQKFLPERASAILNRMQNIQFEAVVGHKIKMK
Inhibition of 17bHSD13 was measured in a cell-based assay with over expressed HSD17β13 in HEK293S cells, measuring estradiol to estrone conversion by LCMS/MS.
Samples were analyzed using LC-MS/MS.
(§1) SCIEX LC-MS/MS system: Sample was injected with CTC analytical injector, SHIMATZU LC pumps LC20 and analysed on the SCIEX API 5000 LCMSMS system with the following settings. […] The mobile phases consist of A (water with 0.2% formic acid) and B (acetonitrile with 0.2% formic acid). The LC gradient profile is as follows: 50% B during 0 to 0.5 min, a linear increase to 100% B during 0.5 to 1 min, hold at 100% B during 1 to 1.6 min then back to 50% B from 1.6 to 2 min. […] Detection was performed on a API 5000 LC/MS/MS system with a triple quadrupole mass spectrometer, a TURBO V ion source, in multiple reaction monitoring (MRM) mode at positive polarity with APCI probe. […] The dwell times were 100 ms for each transition and a depolarization and collision energy of 100 and 40, respectively. Data from MS signals was using area under curve (AUC). Ratio=Estrone/(Estrone+Estradiol)
(§2) […] […] was used for curve fitting and calculation of IC50 values.
(§3) Compound effect was calculated with the formula below;
(§4) where X represents the effect in the presence of test compound, min is DMSO and max is the maximum inhibition of enzyme using a known inhibitor as control.

Test [2] addresses recombinant 17bHSD13 (N2-K300) (Homo sapiens (Human), UniProt Q7Z5P4). The test is described as follows: In Vitro 17bHSD13 Enzyme Assay. The format is biochemical. The conditions noted are these: 80 nM 17bHSD13, 0.5 mM NAD, 20 μM Estradiol, 2.5 h; estradiol to estrone by LC-MS/MS. On the procedure: In Vitro 17bHSD13 Enzyme Assay
The enzyme reaction was initiated by addition, using CERTUS-FLEX dispenser (GYGER), of 20 μl of substrate solution containing NAD (SIGMA, N1511) and Estradiol (SIGMA, E8875). […] Final assay conditions were 80 nM of 17bHSD13, 0.5 mM of NAD, 20 μM Estradiol and various concentrations of compound in buffer (5 mM EDTA (TEKNOVA E0306), 0.01% DDM (AFFYMETRIX D310) in 50 mM Tris-Cl, pH 7.4).
as §1, with “analyzed” for “analysed”
as §2, §3, §4

Test [3] concerns the target over expressed HSD17β9 in HEK293S cells (Homo sapiens (Human), UniProt Q92781). As to the kind of experiment: In Vitro 17bHSD9 Cell Assay. The format is cell-based. The conditions noted are these: HEK293S cells over expressing HSD17β9; retinol to retinal conversion, 18 h, LC-MS/MS; read-out: 17bHSD9 Cell assay IC50. On the procedure:
In Vitro 17bHSD9 Cell Assay
Inhibition of 17bHSD9 was measured in a cell-based assay with over expressed HSD17β9 in HEK293S cells, measuring retinol to retinal conversion by LCMS/MS.
Cells were plated in 384 well plates (GREINER CELL culture plate 384w black/clear Poly-D-Lysine) at 10 K c/w in 30 μl of culture media (DMEM with GLUTAMAX plus 10% FBS). […] After 18 h of cell culturing for 20 μl of media was transferred using BRAVO dispensing robot (AGILENT) to a GREINER PP 384 well plate (781280) and 40 μl of 50% acetonitrile was added. Samples were analyzed using LC-MS/MS.
SCIEX LC-MS/MS system: Sample was injected with CTC analytical injector, SHIMATZU LC pumps LC20 and analysed on the SCIEX API 5000 LCMSMS system with the following settings. Samples were chromatographed on a WATERS, symmetry, C8, 3.5 μm, 2.1×50 mm) column at constant flow rate of 0.5 mL/min. The mobile phases consists of A (water with 0.2% formic acid) and B (acetonitrile with 0.2% formic acid). The LC gradient profile is as follows: 50% B during 0 to 0.1 min, a linear increase to 100% B during 0.1 to 0.8 min, hold at 100% B during 0.8 to 1.5 min then back to 50% B from 1.5 to 1.6 min and hold during run time. The run time was 2 min with retention times of approximately 1.54 and 1.62 min for Retinol and Retinal, respectively. Detection was performed on a API 5000 LC/MS/MS system with a triple quadrupole mass spectrometer, a TURBO V ion source, in multiple reaction monitoring (MRM) mode at positive polarity with ESI probe. The MRM pairs were m/z 269.3 to m/z 93.0 and m/z 285.2 to 161.0. for Retinol and Retinal, respectively. The dwell times were 100 ms for each transition and a depolarization and collision energy of 50 and 25, respectively. Data from MS signals was using area under curve (AUC). Ratio=Retinal/(Retinal+Retinol).
as §2, §3, §4

Chain of over expressed HSD17β9 in HEK293S cells (Q92781 whole entry): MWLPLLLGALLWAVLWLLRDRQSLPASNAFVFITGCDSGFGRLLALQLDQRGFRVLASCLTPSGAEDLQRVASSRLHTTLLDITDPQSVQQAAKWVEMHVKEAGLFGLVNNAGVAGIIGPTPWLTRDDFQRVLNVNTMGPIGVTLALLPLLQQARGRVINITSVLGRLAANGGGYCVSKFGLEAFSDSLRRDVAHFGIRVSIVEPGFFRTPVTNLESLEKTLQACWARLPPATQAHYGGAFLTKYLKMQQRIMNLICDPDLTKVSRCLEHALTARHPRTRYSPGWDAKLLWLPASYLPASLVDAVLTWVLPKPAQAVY
Chain of recombinant 17bHSD13 (N2-K300) (Q7Z5P4 2-300): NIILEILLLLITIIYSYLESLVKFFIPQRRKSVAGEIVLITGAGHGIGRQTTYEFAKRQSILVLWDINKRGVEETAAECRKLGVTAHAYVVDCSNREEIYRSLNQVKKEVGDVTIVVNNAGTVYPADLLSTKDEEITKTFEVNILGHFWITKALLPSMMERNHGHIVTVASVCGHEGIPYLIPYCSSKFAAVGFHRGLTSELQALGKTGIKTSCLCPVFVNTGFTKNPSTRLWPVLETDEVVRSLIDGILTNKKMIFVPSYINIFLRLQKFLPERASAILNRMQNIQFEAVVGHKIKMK

As for `COc1cccc(N2CCN(C(=O)c3noc(-c4cc(C(F)(F)F)[nH]c(=O)c4)n3)CC2)c1` [Example 10, 4-(3-(4-(3-Methoxyphenyl)piperazine-1-carbonyl)-1,2,4-oxadiazol-5-yl)-6-(trifluoromethyl)pyridin-2(1H)-one], the 50% inhibitory concentration (IC50) (commonly the midpoint of a concentration-inhibition curve) in test [1] was 4140 nM; in test [2], 474 nM; in test [3], over 50000 nM.
With `N#Cc1c(C(=O)N2CCC(n3cc(-c4ccc(F)cc4)[nH]c3=O)CC2)noc1-c1cc(F)c(F)c(O)c1F` [Example 24, 3-(4-(4-(4-Fluorophenyl)-2-oxo-2,3-dihydro-1H-imidazol-1-yl)piperidine-1-carbonyl)-5-(2,4,5-trifluoro-3-hydroxyphenyl)isoxazole-4-carbonitrile], the figures for the concentration for half-maximal inhibition (IC50) in test [1] and in test [2] were 3500 nM and 198 nM, respectively.
Take `N#Cc1c(C(=O)N2CC(C(F)(F)F)C2)noc1-c1cc(F)c(F)c(O)c1F` [Example 28, 5-(2,4,5-Trifluoro-3-hydroxyphenyl)-3-(3-(trifluoromethyl)azetidine-1-carbonyl)isoxazole-4-carbonitrile]: the IC50 in test [1] came out at 4130 nM; in test [2], 368 nM.
For `COc1ccc(N2CCN(C(=O)c3noc(-c4cc(F)c(F)c(O)c4F)n3)CC2)cc1` [Example 55, (4-(4-Methoxyphenyl)piperazin-1-yl)(5-(2,4,5-trifluoro-3-hydroxyphenyl)-1,2,4-oxadiazol-3-yl)methanone], in that order: 960 nM and 112 nM.
Consider `COc1cccc(N2CCN(C(=O)c3noc(-c4cc(F)c(F)c(O)c4F)n3)CC2)c1` [Example 61, (4-(3-Methoxyphenyl)piperazin-1-yl)(5-(2,4,5-trifluoro-3-hydroxyphenyl)-1,2,4-oxadiazol-3-yl)methanone], for which the half-inhibitory concentration (IC50) is 730 nM in test [1], 50 nM in test [2] and over 50000 nM in test [3].
With `CN(C(=O)c1noc(-c2cc(F)c(F)c(O)c2F)n1)c1cccc(C#N)c1` [Example 63, N-(3-Cyanophenyl)-N-methyl-5-(2,4,5-trifluoro-3-hydroxyphenyl)-1,2,4-oxadiazole-3-carboxamide], the half-maximal inhibitory concentration (IC50) in test [1] came to 1190 nM.
For `O=C(c1noc(-c2cc(F)c(F)c(O)c2F)n1)N1Cc2ccc(F)cc2C1` [Example 65, (5-Fluoroisoindolin-2-yl)(5-(2,4,5-trifluoro-3-hydroxyphenyl)-1,2,4-oxadiazol-3-yl)methanone], the values for the IC50 in test [1] and in test [2] were 200 nM and 134 nM, respectively.
Regarding `Cc1cc2nc(CN(C)C(=O)c3noc(-c4cc(F)c(F)c(O)c4F)n3)[nH]c2cc1C` [Example 71, N-((5,6-Dimethyl-1H-benzo[d]imidazol-2-yl)methyl)-N-methyl-5-(2,4,5-trifluoro-3-hydroxyphenyl)-1,2,4-oxadiazole-3-carboxamide], the results for the 50% inhibitory concentration (IC50) in test [1] and in test [2] were 28400 nM and 68 nM, respectively.
Take `Cc1ccc2[nH]c(CN(C)C(=O)c3noc(-c4cc(F)c(F)c(O)c4F)n3)nc2c1` [Example 73, N-Methyl-N-((5-methyl-1H-benzo[d]imidazol-2-yl)methyl)-5-(2,4,5-trifluoro-3-hydroxyphenyl)-1,2,4-oxadiazole-3-carboxamide]: the IC50 in test [1] is 21600 nM; in test [2], 88 nM; in test [3] it was over 50000 nM.
Turning to `Cc1cccnc1CN(C(=O)c1noc(-c2cc(F)c(F)c(O)c2F)n1)C(C)C` [Example 75, N-Isopropyl-N-((3-methylpyridin-2-yl)methyl)-5-(2,4,5-trifluoro-3-hydroxyphenyl)-1,2,4-oxadiazole-3-carboxamide], the IC50 worked out at 5600 nM in test [1] and 268 nM in test [2].
For `O=C(c1noc(-c2cc(F)c(F)c(O)c2F)n1)N1CCN(c2ccccc2)CC1` [Example 81, (4-Phenylpiperazin-1-yl)(5-(2,4,5-trifluoro-3-hydroxyphenyl)-1,2,4-oxadiazol-3-yl)methanone], the 50% inhibitory concentration (IC50) in test [1] is 410 nM; in test [2], 95 nM; in test [3], over 50000 nM.
Take `CN(C(=O)c1nnc(-c2ccc(F)c(O)c2)o1)c1nnnn1-c1ccccc1` [Example 91, 5-(4-Fluoro-3-hydroxyphenyl)-N-methyl-N-(1-phenyl-1H-tetrazol-5-yl)-1,3,4-oxadiazole-2-carboxamide]: the values for the IC50 in test [1] and in test [2] were over 50000 nM and 166 nM, respectively.
As to `CN(C(=O)c1noc(-c2ccc(F)c(O)c2)n1)c1nnnn1-c1ccccc1` [Example 92, 5-(4-Fluoro-3-hydroxyphenyl)-N-methyl-N-(1-phenyl-1H-tetrazol-5-yl)-1,2,4-oxadiazole-3-carboxamide], the half-inhibitory concentration (IC50) in test [1] was 1540 nM; in test [2], 41 nM; in test [3] it was over 50000 nM.
Turning to `O=C(NCc1ccnn1C1CCCCC1)c1cnc(-c2ccc(F)c(O)c2)o1` [Example 100, N-((1-Cyclohexyl-1H-pyrazol-5-yl)methyl)-2-(4-fluoro-3-hydroxyphenyl)oxazole-5-carboxamide], the IC50 in test [1] is 18100 nM; in test [2] it was 5340 nM.
`O=C(c1cc(-c2ccc(F)c(O)c2)on1)N1CC[C@H](c2ccccc2)C1` [Example 101, (R)-(5-(4-Fluoro-3-hydroxyphenyl)isoxazol-3-yl)(3-phenylpyrrolidin-1-yl)methanone]: the concentration for half-maximal inhibition (IC50) in test [1] was 420 nM; in test [2], 50 nM; in test [3], over 50000 nM.
The matching figures for `O=C(c1noc(-c2cc(F)c(F)c(O)c2F)n1)N1CCC2(C1)OCc1ccccc12` (stereo not shown) [Example 102, (3H-Spiro[isobenzofuran-1,3′-pyrrolidin]-1′-yl)(5-(2,4,5-trifluoro-3-hydroxyphenyl)-1,2,4-oxadiazol-3-yl)methanone]: 700 nM, 52 nM and over 50000 nM.
Regarding `CN(C)C(=O)C1CCCN1C(=O)c1ccc(-c2cc(F)c(F)c(O)c2F)s1` (stereo not shown) [Example 105, N,N-Dimethyl-1-(5-(2,4,5-trifluoro-3-hydroxyphenyl)thiophene-2-carbonyl)pyrrolidine-2-carboxamide], the 50% inhibitory concentration (IC50) in test [1] was found to be 1260 nM; in test [2], 3760 nM.
